17 compounds from patent US9637520B2, “Template-fixed peptidomimetics with CXCR7 modulating activity” (POLYPHOR AG, priority 2010, dated 2017) can be followed below.

Starred links: 1 amine or outer side, 2 acyl side, 3 side chain; linkers in the order of their positions; H or OH if unused. Non-standard residues stand in square brackets, D forms with d. Residues, ends and D or L forms follow the SMILES beside them. Arg(Nω,Nω'-propylene) = N[C@@H](CCCNC1=NCCCN1)C(=O)O; dPro(cis-4-NH2) = N[C@H]1CN[C@@H](C(=O)O)C1; dPro(4S-NH2) = N[C@@H]1CN[C@@H](C(=O)O)C1; Pro(4S-NH2) = N[C@@H]1CN[C@H](C(=O)O)C1; Pro(4R-NH2) = N[C@H]1CN[C@H](C(=O)O)C1; X2 = O=C([C@H](Cn1ncnn1)N[*:1])[*:2]; 3Pal = N[C@@H](Cc1cccnc1)C(=O)O; Tic = O=C(O)[C@@H]1Cc2ccccc2CN1; Cha = N[C@@H](CC1CCCCC1)C(=O)O; Chg = N[C@H](C(=O)O)C1CCCCC1; Dab = NCC[C@H](N)C(=O)O

T1 sequence (P25106 whole entry): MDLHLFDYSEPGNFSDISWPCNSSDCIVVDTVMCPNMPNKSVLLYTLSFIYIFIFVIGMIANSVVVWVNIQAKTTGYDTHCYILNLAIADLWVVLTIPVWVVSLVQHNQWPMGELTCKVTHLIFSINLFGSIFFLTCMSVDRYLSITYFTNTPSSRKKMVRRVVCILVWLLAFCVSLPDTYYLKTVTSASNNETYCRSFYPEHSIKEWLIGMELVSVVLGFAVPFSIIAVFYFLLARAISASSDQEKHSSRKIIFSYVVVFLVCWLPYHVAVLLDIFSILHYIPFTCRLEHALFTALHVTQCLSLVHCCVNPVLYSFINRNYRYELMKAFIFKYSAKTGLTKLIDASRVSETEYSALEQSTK

The experiment concerns the target T1, CXCR7 (Homo sapiens, UniProt P25106).
T1 construct: host or cells: CHO (PathHunter CHO-CXCR7 β-arrestin cells)
The experiment in a line: CXCR7 β-arrestin recruitment assay (PathHunter CHO-CXCR7, DiscoverX), agonistic assay. The experiment is classed as cell-based. As to conditions: agonistic assay; CHO CXCR7 β-arrestin cells; 90 min at 37° C.; chemiluminescence; read-out: β-Arrestin EC50. Put shortly: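 CHO cells co-expressing CXCR7 and β-arrestin (PathHunter), seeded overnight, then exposed to serially diluted compounds at 1% DMSO for 90 min at 37 °C; SDF-1 served as positive agonist control. Enzyme-fragment complementation detection developed 90 min at room temperature, read by chemiluminescence.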
For orientation: Activated receptors often draw arrestin, which recruitment assays turn into a signal.
Usually EC50 stands for the concentration giving half of the maximal effect. For the compound `N=C(N)NCCC[C@@H]1NC(=O)[C@H](Cc2c[nH]c3ccccc23)NC(=O)[C@@H](Cc2ccccc2)NC(=O)[C@H](Cc2ccc(O)cc2)NC(=O)[C@@H]2Cc3ccccc3CN2C(=O)[C@H]2C[C@@H](N)CN2C1=O` [compound 28, cyclo(-Tyr-^DPhe-Trp-Arg-^DPro((4R)NH2)-Tic-)] (cyclo(R[dPro(cis-4-NH2)][Tic]Y[dF]W)), the EC50 stood at 20.9 ± 27.3 nM. Regarding `N=C(N)NCCC[C@@H]1NC(=O)[C@H](Cc2c[nH]c3ccccc23)NC(=O)[C@@H](Cc2ccccc2)NC(=O)[C@H](Cc2cccnc2)NC(=O)[C@@H]2Cc3ccccc3CN2C(=O)[C@H]2C[C@@H](N)CN2C1=O` [compound 37, cyclo(-3Pal-^DPhe-Trp-Arg-^DPro((4R)NH2)-Tic-)] (cyclo([3Pal][dF]WR[dPro(cis-4-NH2)][Tic])), the EC50 was found to be 5.1 ± 0.9 nM. Consider `C[C@@H](O)[C@@H]1NC(=O)[C@H]2CCCN2C(=O)[C@H](Cc2c[nH]c3ccccc23)NC(=O)[C@H](CCCNC(=N)N)NC(=O)[C@@H](CCCNC(=N)N)NC(=O)[C@H](Cc2c[nH]c3ccccc23)NC1=O` [Ex. 20, cyclo(-Trp-^DArg-Arg-Trp-^DPro-Thr-)] (cyclo(RW[dP]TW[dR])), for which the EC50 was 538 ± 105 nM. For the compound `CC[C@H](C)[C@@H]1NC(=O)[C@H]([C@@H](C)O)NC(=O)[C@H]2CCCN2C(=O)[C@H](Cc2c[nH]c3ccccc23)NC(=O)[C@H](CCCNC(=N)N)NC(=O)[C@@H](CCCNC(=N)N)NC1=O` [compound 18, cyclo(-Ile-^DArg-Arg-Trp-^DPro-Thr-)] (cyclo(I[dR]RW[dP]T)), the EC50 came to 6.7 ± 5.1 nM. On to `CC[C@H](C)[C@@H]1NC(=O)[C@H]([C@@H](C)O)NC(=O)[C@H]2CCCN2C(=O)[C@H](Cc2ccc(O)cc2)NC(=O)[C@H](CCCNC(=N)N)NC(=O)[C@@H](CCCNC(=N)N)NC1=O` [Ex. 2, cyclo(-Ile-^DArg-Arg-Tyr-^DPro-Thr-)] (cyclo(I[dR]RY[dP]T)), for which the EC50 was determined as 83.7 ± 77.4 nM. For `C[C@@H](O)[C@@H]1NC(=O)[C@H]2CCCN2C(=O)[C@H](Cc2c[nH]c3ccccc23)NC(=O)[C@H](CCCNC(=N)N)NC(=O)[C@@H](CCCNC(=N)N)NC(=O)[C@H](CC2CCCCC2)NC1=O` [compound 62, cyclo(-Cha-^DArg-Arg-Trp-^DPro-Thr-)] (cyclo([Cha][dR]RW[dP]T)), the EC50 came out at 37.7 ± 18.5 nM. For the compound `N=C(N)NCCC[C@@H]1NC(=O)[C@H](Cc2c[nH]c3ccccc23)NC(=O)[C@@H](Cc2ccccc2)NC(=O)[C@H](Cc2c[nH]c3ccccc23)NC(=O)[C@@H]2C[C@@H](N)CN2C(=O)[C@H]2CCCN2C1=O` [compound 45, cyclo(-Trp-^DPhe-Trp-Arg-^DPro-Pro((4R)NH2)—)] (cyclo(R[dP][Pro(4R-NH2)]W[dF]W)), the EC50 came to 26.9 ± 12.6 nM. Turning to `CC[C@H](C)[C@@H]1NC(=O)[C@H]([C@@H](C)O)NC(=O)[C@H]2C[C@@H](N)CN2C(=O)[C@H](Cc2c[nH]c3ccccc23)NC(=O)[C@H](CCCNC(=N)N)NC(=O)[C@@H](CCCNC(=N)N)NC1=O` [Ex. 56, cyclo(-Ile-^DArg-Arg-Trp-^DPro((4R)NH2)-Thr-)] (cyclo(I[dR]RW[dPro(cis-4-NH2)]T)), the EC50 amounted to 949 ± 75.3 nM. As for `NCC[C@@H]1NC(=O)[C@H](Cc2c[nH]c3ccccc23)NC(=O)[C@@H](Cc2ccccc2)NC(=O)[C@H](Cc2c[nH]c3ccccc23)NC(=O)[C@@H]2Cc3ccccc3CN2C(=O)[C@H]2C[C@@H](N)CN2C1=O` [compound 30, cyclo(-Trp-^DPhe-Trp-Dab-^DPro((4R)NH2)-Tic-)] (cyclo([Dab][dPro(cis-4-NH2)][Tic]W[dF]W)), the EC50 came to 13.6 ± 5 nM. As for `CC[C@H](C)[C@@H]1NC(=O)[C@H]([C@@H](C)O)NC(=O)[C@H]2CCCN2C(=O)[C@H](CCCNC(=N)N)NC(=O)[C@H](Cc2c[nH]c3ccccc23)NC(=O)[C@@H](CCCNC(=N)N)NC1=O` [Ex. 17, cyclo(-Ile-^DArg-Trp-Arg-^DPro-Thr-)] (cyclo(I[dR]WR[dP]T)), the EC50 was determined as 62.5 ± 1.8 nM.

On to `N=C(N)NCCC[C@@H]1NC(=O)[C@H](Cc2c[nH]c3ccccc23)NC(=O)[C@@H](Cc2ccccc2)NC(=O)[C@H](Cn2ncnn2)NC(=O)[C@@H]2Cc3ccccc3CN2C(=O)[C@H]2C[C@@H](N)CN2C1=O` [compound 75, cyclo(-Ala(Tet)-^DPhe-Trp-Arg-^DPro((4R)NH2)-Tic-)] (cyclo(R[dPro(cis-4-NH2)][Tic][X2][dF]W)), for which the 50% effective concentration (EC50) worked out at 28.1 ± 5.1 nM. Take `CC[C@H](C)[C@@H]1NC(=O)[C@H]([C@@H](C)O)NC(=O)[C@H]2CCCN2C(=O)[C@H](Cc2c[nH]c3ccccc23)NC(=O)[C@H](CCCNC(=N)N)NC(=O)[C@@H](CCCCN)NC1=O` [compound 11, cyclo(-Ile-^DLys-Arg-Trp-^DPro-Thr-)] (cyclo(I[dK]RW[dP]T)): the EC50 was 86.7 ± 9.7 nM.

Take `C[C@@H](O)[C@@H]1NC(=O)[C@H]2CCCN2C(=O)[C@H](Cc2c[nH]c3ccccc23)NC(=O)[C@H](CCCNC(=N)N)NC(=O)[C@@H](CCCNC(=N)N)NC(=O)[C@H](C2CCCCC2)NC1=O` [compound 59, cyclo(-Chg-^DArg-Arg-Trp-^DPro-Thr-)] (cyclo([Chg][dR]RW[dP]T)): the EC50 is 6.7 ± 2.2 nM. The result for `N=C(N)NCCC[C@@H]1NC(=O)[C@H](Cc2c[nH]c3ccccc23)NC(=O)[C@@H](Cc2ccccc2)NC(=O)[C@H](Cc2c[nH]c3ccccc23)NC(=O)[C@@H]2Cc3ccccc3CN2C(=O)[C@H]2C[C@@H](N)CN2C1=O` [compound 26, cyclo(-Trp-^DPhe-Trp-Arg-^DPro((4R)NH2)-Tic-)] (cyclo(R[dPro(cis-4-NH2)][Tic]W[dF]W)) reads 6.1 ± 3.3 nM; that for `N=C(N)NCCC[C@@H]1NC(=O)[C@@H]2Cc3ccccc3CN2C(=O)[C@H]2C[C@H](N)CN2C(=O)[C@H](CCCNC(=N)N)NC(=O)[C@H](Cc2c[nH]c3ccccc23)NC(=O)[C@@H](Cc2ccccc2)NC1=O` [compound 40, cyclo(-Arg-^DPhe-Trp-Arg-^DPro((4S)NH2)-Tic-)] (cyclo(R[dF]WR[dPro(4S-NH2)][Tic])), 13.1 ± 4.4 nM; that for `N=C(N)NCCC[C@@H]1NC(=O)[C@H](Cc2c[nH]c3ccccc23)NC(=O)[C@@H](Cc2ccccc2)NC(=O)[C@H](CCCNC2=NCCCN2)NC(=O)[C@@H]2Cc3ccccc3CN2C(=O)[C@H]2C[C@@H](N)CN2C1=O` [compound 77, cyclo(-Orn(A56)-^DPhe-Trp-Arg-^DPro((4R)NH2)-Tic-)] (cyclo(R[dPro(cis-4-NH2)][Tic][Arg(Nω,Nω'-propylene)][dF]W)), 181 ± 62.9 nM. The figure for `N=C(N)NCCC[C@@H]1NC(=O)[C@H](Cc2c[nH]c3ccccc23)NC(=O)[C@@H](Cc2ccccc2)NC(=O)[C@H](Cc2c[nH]c3ccccc23)NC(=O)[C@@H]2C[C@H](N)CN2C(=O)[C@H]2CCCN2C1=O` [compound 44, cyclo(-Trp-^DPhe-Trp-Arg-^DPro-Pro((4S)NH2)—)] (cyclo(R[dP][Pro(4S-NH2)]W[dF]W)) is 36.9 ± 14 nM.
